Marks after values point to notes of the source that are not given here.
What was measured:
[1] = target: acetylcholinesterase; parameters: method as in PMID 8823504, PMID 7649881, PMID 9535168; conditions: read-out: IC50 against acetylcholinesterase; cited from earlier work
[2] = in vitro; format: cell-based; conditions: mouse, RAW264.7 cells, then LPS (500 ng/mL) 20 h, read-out: Cell viability, Average (%)
Method: To investigate the anti-inflammatory activity of coumarin derivatives, cell viability was analyzed by treating RAW264.7 cells with 23 types of coumarin derivatives at concentrations of 20, 40, and 80 μM for 2 h and with LPS for 20 h.
Mouse macrophage RAW264.7 cells were purchased from the Korea Cell Line Bank (Seoul, Republic of Korea) and cultured in Dulbecco’s Modified Eagle Medium (Corning, NY, USA) containing 10% fetal bovine serum and 1% penicillin/streptomycin at 37 °C and 5% CO2. The medium was changed every 2 days and subcultured when the cells grew > 80%.
EZ-Cytox cell viability assay kit (Dogen, Suwon, Republic of Korea) was used to measure cell viability according to the manufacturer’s instructions. RAW264.7 cells were seeded into a 96-well plate (1 × 10^5 cells/well) and treated with coumarin derivatives at concentrations of 20, 40, and 80 μM. After 2 h, the cells were treated with LPS (500 ng/mL) and cultured for 24 h in a 37 °C, 5% CO2 incubator. The culture supernatant was treated with 10% EZ-Cytox reagent, and a microplate reader was used to measure the absorbance at 450 nm.

[3] = system: LPS-stimulated RAW264.7 cells; assay: NO production (Griess reagent) in LPS-stimulated RAW264.7 cells; format: cell-based, Mouse; conditions: then LPS (500 ng/mL) 20 h, LPS alone 25.9, control 3.1
Method: A high concentration of NO promotes the synthesis of inflammatory mediators, leading to an inflammatory response, and has been reported to be a cause of various immune diseases. Therefore, this study was conducted to investigate the effect of coumarin derivatives on the production of NO induced by LPS stimulation in RAW264.7 cells. The cells were treated with coumarin derivatives at concentrations of 20, 40, and 80 μM for 2 h. Then, the cells were treated with LPS. After 20 h, the culture supernatant was recovered, and the amount of NO was measured. […] The anti-inflammatory activity of these derivatives depended on the position of the substituted group rather than the electron density of the substituted group.
The Griess reagent was used to measure NO production. RAW264.7 cells were seeded into a 96-well plate and cultured for 24 h. The cells were treated with 20, 40, and 80 μM of coumarin derivatives, cultured for 2 h, and then cultured with LPS (500 ng/mL) for 20 h. The same amount of cell supernatant and Griess reagent were used for the reaction, and absorbance was measured at 540 nm.

[4] = system: LPS-stimulated RAW264.7 cells; assay: as above; format: cell-based, Mouse; conditions: Dexamethasone (100 μM) treated for 2 h and LPS treated for 20 h; LPS alone 25.9, control 3.1

Compound: COc1ccc(-c2cc3c(c(=O)o2)C[C@]2(O)[C@@]4(C)C(=O)C=CC(C)(C)[C@]4(O)CC[C@@]2(C)O3)cc1OC [Arisugacin A]
- IC50 [1]: 1 nM

Compound: COc1ccc(-c2cc3c(c(=O)o2)C[C@]2(O)[C@@]4(C)C(=O)C=CC(C)(C)[C@]4(O)CC[C@@]2(C)O3)cc1 [Arisugacin B]
- IC50 [1]: 26 nM

Compound: N#CC1=C(N)Oc2c(c(=O)oc3ccccc23)C1c1ccccc1 (stereo not drawn) [Coumarin derivative 23]
- viability at 22 h, 20 μM ([2]; 20 μM for 2 h): 119%
- viability at 22 h, 40 μM ([2]; 40 μM for 2 h): 118%
- viability at 22 h, 80 μM ([2]; 80 μM for 2 h): 117%
- NO production, Average ([3]; 20 μM for 2 h): 30.77 µM
- NO production, Average ([3]; 40 μM for 2 h): 29.80 µM
- NO production, Average ([3]; 80 μM for 2 h): 27.39 µM

Compound: C[C@@H]1C[C@H]2[C@@H]3CCC4=CC(=O)C=C[C@]4(C)[C@@]3(F)[C@@H](O)C[C@]2(C)[C@@]1(O)C(=O)CO [Dexamethasone]
- NO production, Average (μM) [4]: 6.5 ^# μM

Source: article PMC10298626 (International Journal of Molecular Sciences, 2023)
